Data taken from ChEMBL document CHEMBL5608197, “Optimization of pyrazolopyridine 4-carboxamides with potent antimalarial activity for which resistance is associated with the P. falciparum transporter ABCI3” (Eur J Med Chem, 2024).
Active and inactive are the calls of the source. The calls are words filed in the database; no cut-off is given here.

Legend:
[1] = target: Voltage-gated inwardly rectifying potassium channel KCNH2 (Homo sapiens, UniProt Q12809); assay: Inhibition of hERG expressed in CHO cells by patch clamp method; format: toxicity, cell-based
Sequence of Voltage-gated inwardly rectifying potassium channel KCNH2 (Q12809 whole entry): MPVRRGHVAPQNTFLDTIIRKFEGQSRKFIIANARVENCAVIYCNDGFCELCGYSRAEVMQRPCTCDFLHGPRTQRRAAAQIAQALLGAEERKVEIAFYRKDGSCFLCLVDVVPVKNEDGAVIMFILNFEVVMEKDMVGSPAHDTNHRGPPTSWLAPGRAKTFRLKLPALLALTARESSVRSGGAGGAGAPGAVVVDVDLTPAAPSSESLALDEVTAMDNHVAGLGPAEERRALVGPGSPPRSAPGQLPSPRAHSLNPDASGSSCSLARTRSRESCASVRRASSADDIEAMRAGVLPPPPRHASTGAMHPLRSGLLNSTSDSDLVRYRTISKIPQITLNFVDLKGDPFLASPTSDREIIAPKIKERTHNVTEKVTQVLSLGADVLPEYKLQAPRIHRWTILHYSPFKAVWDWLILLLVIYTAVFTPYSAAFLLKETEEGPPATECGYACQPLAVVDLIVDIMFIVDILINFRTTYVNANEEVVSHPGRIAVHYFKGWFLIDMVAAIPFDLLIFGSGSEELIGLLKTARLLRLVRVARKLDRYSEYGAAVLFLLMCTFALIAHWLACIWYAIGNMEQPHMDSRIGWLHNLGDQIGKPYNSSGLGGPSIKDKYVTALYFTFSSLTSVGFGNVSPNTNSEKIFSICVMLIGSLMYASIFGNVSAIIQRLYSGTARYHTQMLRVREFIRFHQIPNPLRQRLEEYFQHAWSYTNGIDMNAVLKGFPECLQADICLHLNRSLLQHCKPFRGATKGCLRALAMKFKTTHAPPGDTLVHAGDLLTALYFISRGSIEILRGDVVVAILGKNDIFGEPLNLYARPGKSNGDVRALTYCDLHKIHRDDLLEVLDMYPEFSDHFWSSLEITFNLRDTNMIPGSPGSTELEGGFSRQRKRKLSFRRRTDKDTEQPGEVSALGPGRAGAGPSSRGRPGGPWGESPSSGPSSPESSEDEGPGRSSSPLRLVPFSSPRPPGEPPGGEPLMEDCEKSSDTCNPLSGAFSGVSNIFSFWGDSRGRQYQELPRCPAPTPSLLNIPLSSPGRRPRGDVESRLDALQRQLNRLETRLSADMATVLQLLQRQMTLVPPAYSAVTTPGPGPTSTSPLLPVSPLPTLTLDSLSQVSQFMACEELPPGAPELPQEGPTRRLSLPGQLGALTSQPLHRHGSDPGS

CYP1A2 [2] = target: T1, CYP1A2 (Homo sapiens, UniProt P05177); assay: Inhibition of CYP1A2 (unknown origin) at 1 uM relative to control; format: ADME
T1 sequence (P05177 whole entry): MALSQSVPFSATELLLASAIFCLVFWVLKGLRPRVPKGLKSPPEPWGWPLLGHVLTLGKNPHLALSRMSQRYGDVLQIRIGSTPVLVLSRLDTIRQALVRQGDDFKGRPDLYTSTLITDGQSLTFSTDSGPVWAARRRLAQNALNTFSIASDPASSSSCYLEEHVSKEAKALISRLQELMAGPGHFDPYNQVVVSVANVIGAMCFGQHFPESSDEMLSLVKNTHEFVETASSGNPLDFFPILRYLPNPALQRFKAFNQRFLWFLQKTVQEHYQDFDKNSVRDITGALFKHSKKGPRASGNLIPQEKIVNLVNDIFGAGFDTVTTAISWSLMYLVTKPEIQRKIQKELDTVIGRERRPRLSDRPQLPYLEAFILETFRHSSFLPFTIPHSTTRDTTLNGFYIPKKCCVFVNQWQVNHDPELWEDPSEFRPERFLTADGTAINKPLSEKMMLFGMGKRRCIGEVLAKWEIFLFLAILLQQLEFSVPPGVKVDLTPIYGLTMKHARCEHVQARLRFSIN

CYP1A2 [3] = target: T1, CYP1A2; assay: Inhibition of CYP1A2 (unknown origin) at 10 uM relative to control; format: ADME
CYP3A4 = CYP3A4 (Homo sapiens, UniProt P08684); assay: Inhibition of CYP3A4 (unknown origin) at 1 uM relative to control; format: ADME
Sequence of CYP3A4 (P08684 whole entry): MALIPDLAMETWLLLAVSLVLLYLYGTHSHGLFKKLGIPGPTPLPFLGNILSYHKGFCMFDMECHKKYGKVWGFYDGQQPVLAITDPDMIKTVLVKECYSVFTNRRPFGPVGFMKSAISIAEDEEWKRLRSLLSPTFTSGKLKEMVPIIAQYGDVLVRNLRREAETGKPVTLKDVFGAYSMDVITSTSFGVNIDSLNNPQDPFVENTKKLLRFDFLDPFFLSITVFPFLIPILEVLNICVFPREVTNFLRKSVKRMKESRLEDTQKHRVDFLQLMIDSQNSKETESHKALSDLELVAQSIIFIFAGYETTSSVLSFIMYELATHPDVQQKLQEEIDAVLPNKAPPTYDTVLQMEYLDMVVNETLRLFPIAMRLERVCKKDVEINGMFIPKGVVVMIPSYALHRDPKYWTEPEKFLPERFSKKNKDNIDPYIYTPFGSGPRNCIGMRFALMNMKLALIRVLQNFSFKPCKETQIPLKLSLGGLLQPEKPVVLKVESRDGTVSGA

Plasmodium falciparum [4] = assay: Antimalarial activity against asexual stage of Plasmodium falciparum 3D7 infected in erythrocytes assessed as lag phase of parasite growth at 10XEC50 incubated for 24 hrs followed by drug removal and incubation for 48 hrs with CFDA-SE labelled fresh erythrocytes by Hoechst 33342 staining based two-color flow cytometry; format: functional, organism-based; details: Erythrocyte
Plasmodium falciparum [5] = assay: Resistance ratio of EC90 for antiplasmodial activity against drug-resistant recrudescent Plasmodium falciparum Dd2-B2 in 2x10^7 bulk culture selection measured on day 15 under initial selection drug pressure concentration of 3XEC50 to EC90 for antiplasmodial activity against Plasmodium flaciparum Dd2 measured after 72 hrs; format: functional
Plasmodium falciparum [6] = assay: Antiplasmodial activity against drug-resistant Plasmodium falciparum Dd2-B2 bulk cultures assessed as minimum inoculum of resistance measured under initial selection drug pressure concentration of 3XEC50 by MIR analysis; format: functional
Plasmodium falciparum [7] = assay: Antiplasmodial activity against multidrug-resistant Plasmodium falciparum Dd2 harboring cyt b-I22L mutant infected in erythrocytes assessed as inhibition of parasite growth incubated for 72 hrs by [3H]hypoxanthine incorporation based microbeta counting analysis; format: functional, organism-based; details: Dd2, Erythrocyte
Plasmodium falciparum [8] = assay: Antiplasmodial activity against multidrug-resistant Plasmodium falciparum 7G8 infected in erythrocytes assessed as inhibition of parasite growth incubated for 72 hrs by [3H]hypoxanthine incorporation based microbeta counting analysis; format: functional, organism-based; details: 7G8, Erythrocyte
Plasmodium falciparum [9] = assay: Antiplasmodial activity against multidrug-resistant Plasmodium falciparum Cam3.1 infected in erythrocytes assessed as inhibition of parasite growth incubated for 72 hrs by [3H]hypoxanthine incorporation based microbeta counting analysis; format: functional, organism-based; details: Cam3.1, Erythrocyte

Cc1nn(C(C)(C)C)c2nc(C3CC3)cc(C(=O)N3CCOc4ccncc43)c12
EC50 [1]: 16700 nM
inhibition at 1 µM (CYP1A2 [2]): 18%
inhibition at 10 µM (CYP1A2 [3]): 55.1%
inhibition at 1 µM (CYP3A4): 66.2%
Activity (Plasmodium falciparum [4]): Active
Ratio (Plasmodium falciparum [5]): 5
Activity (Plasmodium falciparum [6]): 1.6 10^6No_unit
EC50 (Plasmodium falciparum [7]): 6 nM
EC50 (Plasmodium falciparum [8]): 8 nM
EC50 (Plasmodium falciparum [9]): 6 nM
